{"source": "patent US20070179112A1", "about": "“POLYMERIC NUCLEOSIDE PRODRUGS” (Reliable Biopharmaceutical, Inc., priority 2000, published 2007)", "key": {"[1]": {"test_system": "Snake Venom PhosphoDiEsterase, SVPDE (Phosphodiesterase I Type II)"}, "snake phosphodiesterase": {"test_system": "snake phosphodiesterase", "assay": "Cleavage of oligo 6 by snake phosphodiesterase (Boehringer Mannheim), monitored by CGE", "format": "in vitro ADME, crotalus durissus", "details": "0.5 μl enzyme in water (total volume 25 μl)", "experimental": "Examples 13-22 describe cleavage of the Oligos 1-7. All cleavage experiments were performed at room temperature. The concentrations of the nucleases were reduced to slow down the rates of cleavage for the homoploymers. See S. Agrawal, in Delivery Strategies for Antisense Oligonucleotide Therapeutics, 275, 462-473, Ed. S. Akhtar, CAC Press, 1995. The Capillary Gel Electrophoresis equipment used for the studies were the Beckmman PAC/E 2200 system with Beckman Coulter E-CAP DNA capillary (#477477, […], 65 cm [27 cm effective length] loaded with Beckman Coulter E-CAP ssDNA 100-R gel and run using the Tris-Borate-Urea buffer prepared according to Beckman procedures. The CGE running conditions were as follows. The injection was done for 2 seconds at 10 kV followed by electro-osmotic flow with buffer for 30-60 min as needed at 10 kV. The cleavage reactions were monitored in most cases after 1, 2, 4, 5, 7, 10, 12, 15, 17 and 20 hrs. Some reactions were monitored after 5, 10 minutes and others after 72 and 100 hrs. The SVPDE is obtained from two different species of snakes, crotalus adamanteus and crotalus durissus. It has been observed that there is no variation in the cleavage experiments as a result of this change. […]"}}}
{"substance": "([cytarabine-pO]3-[2′O-methylcytidine-pO]2)3 [Oligo 2]", "values": [{"measurement": "full length oligo cleaved (estimated)", "setting": "[1]", "value": "more than 50%"}, {"measurement": "ratio of 2′O-MeCMP to dCMP reached as the cleavage progressed", "setting": "[1]", "value": 5}, {"measurement": "ratio of araCMP to dCMP reached as the cleavage progressed", "setting": "[1]", "value": 6}]}
{"substance": "(cytarabine-pO)15-dC [Oligo 1]", "values": [{"measurement": "cleavage/degradation observed by CGE", "setting": "[1]", "value": "minor cleavage"}, {"measurement": "oligonucleotide degraded to monomers", "setting": "[1]", "value": "~20", "unit": "%"}, {"measurement": "oligonucleotide degraded to oligomers of smaller lengths", "setting": "[1]", "value": "~50", "unit": "%"}, {"measurement": "ratio of araCMP to dCMP reached as the cleavage progressed", "setting": "[1]", "value": 13}, {"measurement": "ratio of araCMP to dCMP, starting value as the cleavage progressed", "setting": "[1]", "value": 3}]}
{"substance": "[2′O-methylcytarabine-pO] 15-dC [Oligo 5]", "values": [{"measurement": "oligonucleotide degraded", "setting": "[1]", "value": "more than 80%"}]}
{"substance": "[dC-pO] 14-dC-OH [Oligo 6, reference compound]", "values": [{"measurement": "cleavage/degradation observed by CGE", "setting": "snake phosphodiesterase; after 30 minutes", "value": "a series of shorter oligomers due to partial cleavage was observed"}, {"measurement": "cleavage/degradation observed by CGE", "setting": "snake phosphodiesterase; after 2 hours", "value": "no full length oligonucleotide was observed"}, {"measurement": "digestion", "setting": "[1]", "value": "more than 90%"}]}
{"substance": "polycylidilic acid [Oligo 7, reference compound]", "values": [{"measurement": "digestion", "setting": "[1]", "value": "more than 90%"}]}
